Biological target: T1, G-protein coupled receptor 30 (GPR30) (Rattus norvegicus, UniProt O08878)
T1 sequence (O08878 1-375): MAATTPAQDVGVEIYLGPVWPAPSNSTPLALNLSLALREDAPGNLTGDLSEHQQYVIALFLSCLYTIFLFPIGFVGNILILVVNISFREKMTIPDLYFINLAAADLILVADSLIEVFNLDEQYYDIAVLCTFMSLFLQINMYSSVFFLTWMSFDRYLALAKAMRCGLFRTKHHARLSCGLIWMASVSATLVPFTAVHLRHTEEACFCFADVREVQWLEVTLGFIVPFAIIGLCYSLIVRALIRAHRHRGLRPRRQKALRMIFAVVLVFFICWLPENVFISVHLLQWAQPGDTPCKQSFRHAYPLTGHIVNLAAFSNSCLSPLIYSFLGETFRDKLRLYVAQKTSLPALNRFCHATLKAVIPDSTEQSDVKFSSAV
Experiment: [3H]2ME2 saturation radioligand binding on WB cell membranes

SMILES: COc1cc2c(cc1O)CC[C@@H]1[C@@H]2CC[C@]2(C)[C@@H](O)CC[C@@H]12 [2ME2, 2-methoxyestradiol]
- Kd: ~10.1 nM

Reference: paper PMC3946276 (European journal of pharmacology, 2013)
